Measured values reported in PubChem BioAssay (NCI).
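Results reflect a 48-hour exposure of cells in 96-well plates to compound at five concentrations. Abbreviation: GI50, concentration required for 50% inhibition of growth. TGI denotes the concentration required for complete inhibition of growth.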

Legend:
Assay in all cases: NCI anticancer screen, dose series, 48 h
U251 CNS = system: U251 CNS
OVCAR-8 ovarian = system: OVCAR-8 ovarian
CAKI-1 renal = system: CAKI-1 renal
SNB-19 CNS = system: SNB-19 CNS
HOP-92 NSCLC = system: HOP-92 NSCLC
MOLT-4 leukemia = system: MOLT-4 leukemia
HCT-116 colon = system: HCT-116 colon
SW-620 colon = system: SW-620 colon
HCC-2998 colon = system: HCC-2998 colon
SN12C renal = system: SN12C renal
BT-549 breast = system: BT-549 breast
SK-MEL-28 melanoma = system: SK-MEL-28 melanoma
MDA-MB-435 = system: MDA-MB-435
MALME-3M melanoma = system: MALME-3M melanoma
M14 melanoma = system: M14 melanoma
HOP-62 NSCLC = system: HOP-62 NSCLC
A549 NSCLC = system: A549 NSCLC
NCI-H226 lung = system: NCI-H226 lung
NCI/ADR-RES ovarian = system: NCI/ADR-RES ovarian
HCT-15 colon = system: HCT-15 colon
SK-MEL-2 melanoma = system: SK-MEL-2 melanoma
OVCAR-3 ovarian = system: OVCAR-3 ovarian
MCF7 breast = system: MCF7 breast
NCI-H522 lung = system: NCI-H522 lung
SF-268 CNS = system: SF-268 CNS
EKVX NSCLC = system: EKVX NSCLC
KM12 colon = system: KM12 colon
UACC-62 melanoma = system: UACC-62 melanoma
SK-MEL-5 melanoma = system: SK-MEL-5 melanoma
SR leukemia = system: SR leukemia
K-562 leukemia = system: K-562 leukemia
SF-539 CNS = system: SF-539 CNS
DU-145 prostate = system: DU-145 prostate
HL-60(TB) leukemia = system: HL-60(TB) leukemia
786-0 renal = system: 786-0 renal
NCI-H23 lung = system: NCI-H23 lung
SK-OV-3 ovarian = system: SK-OV-3 ovarian
A498 renal = system: A498 renal
NCI-H460 lung = system: NCI-H460 lung
IGROV1 ovarian = system: IGROV1 ovarian
HS 578T breast = system: HS 578T breast
LOX IMVI melanoma = system: LOX IMVI melanoma
UACC-257 melanoma = system: UACC-257 melanoma
RXF 393 renal = system: RXF 393 renal
RPMI-8226 leukemia = system: RPMI-8226 leukemia
ACHN renal = system: ACHN renal
T-47D breast = system: T-47D breast
UO-31 renal = system: UO-31 renal
COLO 205 colon = system: COLO 205 colon
HT29 colon = system: HT29 colon
SF-295 CNS = system: SF-295 CNS
CCRF-CEM leukemia = system: CCRF-CEM leukemia
OVCAR-4 ovarian = system: OVCAR-4 ovarian
PC-3 prostate = system: PC-3 prostate
TK-10 renal = system: TK-10 renal
MDA-MB-231 breast = system: MDA-MB-231 breast
OVCAR-5 ovarian = system: OVCAR-5 ovarian

In the case of `C#CCOc1cccc(Nc2ncnc3cc(NC(=O)C=C)ccc23)c1`, the GI50 (U251 CNS) is reported as 17.4 µM, the TGI (U251 CNS) is reported as > 100 µM and the GI50 (OVCAR-8 ovarian) is reported as 7.72 µM. The TGI (OVCAR-8 ovarian) was 57.8 µM, the GI50 (CAKI-1 renal) was 6.08 µM and the TGI (CAKI-1 renal) was > 100 µM. The GI50 (SNB-19 CNS) was 23.8 µM, the TGI (SNB-19 CNS) was > 100 µM and the GI50 (HOP-92 NSCLC) was 4.77 µM. The TGI (HOP-92 NSCLC) was 58.4 µM, the GI50 (MOLT-4 leukemia) was 4.56 µM and the TGI (MOLT-4 leukemia) was 69.1 µM. For the same molecule, the GI50 (HCT-116 colon) was 4.02 µM, the TGI (HCT-116 colon) was > 100 µM and the GI50 (SW-620 colon) was 3.15 µM. The TGI (SW-620 colon) was 27.8 µM, the GI50 (HCC-2998 colon) was 11.6 µM and the TGI (HCC-2998 colon) was 60.4 µM. For the same molecule, the GI50 (SN12C renal) was 7.63 µM, the TGI (SN12C renal) was > 100 µM and the GI50 (BT-549 breast) was 5.3 µM. For the same molecule, the TGI (BT-549 breast) was > 100 µM, the GI50 (SK-MEL-28 melanoma) was 23 µM and the TGI (SK-MEL-28 melanoma) was > 100 µM. For the same molecule, the GI50 (MDA-MB-435) was 2.08 µM, the TGI (MDA-MB-435) was > 100 µM and the GI50 (MALME-3M melanoma) was 17.6 µM. The TGI (MALME-3M melanoma) was > 100 µM, the GI50 (M14 melanoma) was 6.46 µM and the TGI (M14 melanoma) was > 100 µM. The GI50 (HOP-62 NSCLC) was 13.4 µM, the TGI (HOP-62 NSCLC) was > 100 µM and the GI50 (A549 NSCLC) was 9.44 µM. The TGI (A549 NSCLC) was > 100 µM, the GI50 (NCI-H226 lung) was 29.7 µM and the TGI (NCI-H226 lung) was > 100 µM. The GI50 (NCI/ADR-RES ovarian) was 9.66 µM, the TGI (NCI/ADR-RES ovarian) was > 100 µM and the GI50 (HCT-15 colon) was 3.44 µM. The TGI (HCT-15 colon) was > 100 µM, the GI50 (SK-MEL-2 melanoma) was 20.9 µM and the TGI (SK-MEL-2 melanoma) was > 100 µM. It also gave a GI50 (OVCAR-3 ovarian) of 3.7 µM, a TGI (OVCAR-3 ovarian) of 74.6 µM and a GI50 (MCF7 breast) of 3.65 µM. For the same molecule, the TGI (MCF7 breast) was > 100 µM, the GI50 (NCI-H522 lung) was 2.8 µM and the TGI (NCI-H522 lung) was 34.2 µM. For the same molecule, the GI50 (SF-268 CNS) was 12.6 µM, the TGI (SF-268 CNS) was > 100 µM and the GI50 (EKVX NSCLC) was 14.8 µM. The TGI (EKVX NSCLC) was > 100 µM, the GI50 (KM12 colon) was 10.4 µM and the TGI (KM12 colon) was > 100 µM. The GI50 (UACC-62 melanoma) was 9.82 µM, the TGI (UACC-62 melanoma) was > 100 µM and the GI50 (SK-MEL-5 melanoma) was 17.3 µM. For the same molecule, the TGI (SK-MEL-5 melanoma) was > 100 µM, the GI50 (SR leukemia) was 2.11 µM and the TGI (SR leukemia) was > 100 µM. The GI50 (K-562 leukemia) was 2.79 µM, the TGI (K-562 leukemia) was > 100 µM and the GI50 (SF-539 CNS) was 2.89 µM. For the same molecule, the TGI (SF-539 CNS) was 14 µM, the GI50 (DU-145 prostate) was 3.55 µM and the TGI (DU-145 prostate) was > 100 µM. It also gave a GI50 (HL-60(TB) leukemia) of 3.84 µM, a TGI (HL-60(TB) leukemia) of 45.7 µM and a GI50 (786-0 renal) of 5.97 µM. For the same molecule, the TGI (786-0 renal) was 48.1 µM, the GI50 (NCI-H23 lung) was 26.6 µM and the TGI (NCI-H23 lung) was > 100 µM. The GI50 (SK-OV-3 ovarian) was 7.88 µM, the TGI (SK-OV-3 ovarian) was > 100 µM and the GI50 (A498 renal) was 4.25 µM. The TGI (A498 renal) was 46.6 µM, the GI50 (NCI-H460 lung) was 10.4 µM and the TGI (NCI-H460 lung) was > 100 µM. The GI50 (IGROV1 ovarian) was 10.7 µM, the TGI (IGROV1 ovarian) was > 100 µM and the GI50 (HS 578T breast) was 5.87 µM. For the same molecule, the TGI (HS 578T breast) was 89.8 µM, the GI50 (LOX IMVI melanoma) was 3.73 µM and the TGI (LOX IMVI melanoma) was 17.3 µM. The GI50 (UACC-257 melanoma) was 32.3 µM, the TGI (UACC-257 melanoma) was > 100 µM and the GI50 (RXF 393 renal) was 2.44 µM. For the same molecule, the TGI (RXF 393 renal) was 13.3 µM, the GI50 (RPMI-8226 leukemia) was 4.56 µM and the TGI (RPMI-8226 leukemia) was 38.8 µM. The GI50 (ACHN renal) was 4.74 µM, the TGI (ACHN renal) was > 100 µM and the GI50 (T-47D breast) was 3.98 µM. For the same molecule, the TGI (T-47D breast) was > 100 µM, the GI50 (UO-31 renal) was 3.51 µM and the TGI (UO-31 renal) was 75.6 µM. The GI50 (COLO 205 colon) was 5.41 µM, the TGI (COLO 205 colon) was > 100 µM and the GI50 (HT29 colon) was 3.66 µM. The TGI (HT29 colon) was > 100 µM, the GI50 (SF-295 CNS) was 14.6 µM and the TGI (SF-295 CNS) was > 100 µM. The GI50 (CCRF-CEM leukemia) was 4.08 µM, the TGI (CCRF-CEM leukemia) was > 100 µM and the GI50 (OVCAR-4 ovarian) was 29.6 µM. For the same molecule, the TGI (OVCAR-4 ovarian) was > 100 µM, the GI50 (PC-3 prostate) was 8.36 µM and the TGI (PC-3 prostate) was > 100 µM. For the same molecule, the GI50 (TK-10 renal) was 4.05 µM, the TGI (TK-10 renal) was 35.6 µM and the GI50 (MDA-MB-231 breast) was 6.47 µM. The TGI (MDA-MB-231 breast) was > 100 µM, the GI50 (OVCAR-5 ovarian) was 14.1 µM and the TGI (OVCAR-5 ovarian) was > 100 µM.
